From PMC4128814, “A High Throughput Screen Identifies Potent and Selective Inhibitors to Human Epithelial 15-Lipoxygenase-2” (PLoS ONE, 2014)
pIC50: −log10 of the molar value.

Experiments:
Type in all cases: biochemical
ovine COX-1 = biological target: T1, ovine COX-1 (Ovis aries, UniProt P05979); test: Cyclooxygenase assay (oxygen electrode), COX-1; settings: estimated from one inhibitor point at 20 µM; 100 µM AA
T1 construct: purchased Cayman Chemical
T1 sequence (P05979 25-600): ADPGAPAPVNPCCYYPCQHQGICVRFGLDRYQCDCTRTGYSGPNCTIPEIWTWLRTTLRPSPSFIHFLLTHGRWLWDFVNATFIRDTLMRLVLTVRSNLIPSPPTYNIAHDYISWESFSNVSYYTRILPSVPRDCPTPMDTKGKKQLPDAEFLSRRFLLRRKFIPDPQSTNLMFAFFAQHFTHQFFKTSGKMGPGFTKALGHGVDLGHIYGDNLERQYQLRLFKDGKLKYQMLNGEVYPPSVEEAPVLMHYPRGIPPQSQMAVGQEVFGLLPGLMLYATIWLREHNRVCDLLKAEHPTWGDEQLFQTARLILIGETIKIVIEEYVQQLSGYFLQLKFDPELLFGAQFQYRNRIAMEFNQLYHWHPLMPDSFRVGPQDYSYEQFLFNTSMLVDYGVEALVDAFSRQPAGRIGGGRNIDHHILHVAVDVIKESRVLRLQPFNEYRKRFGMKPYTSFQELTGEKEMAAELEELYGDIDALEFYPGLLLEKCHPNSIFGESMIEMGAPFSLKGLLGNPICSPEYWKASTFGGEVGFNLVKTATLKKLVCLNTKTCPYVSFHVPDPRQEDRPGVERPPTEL
Description: (§1) Cyclooxygenase activity assay was performed as previously described. Approximately 3 µg of either ovine COX-1 (COX-1) or human recombinant COX-2 (COX-2) (Cayman Chemical) were added to buffer containing 0.1 M Tris-HCl buffer (pH 8.0), 5 mM EDTA, 2 mM phenol and 1 µM hematin at 37°C. The selected inhibitors were added to the reaction cell, followed by an incubation of 5 minutes with either of the COX enzymes. The reaction was then initiated by adding 100 µM AA in the reaction cell, as indicated in enzymatic protocol (Cayman Chemicals). Data were collected using a Hansatech DW1 oxygen electrode and the consumption of oxygen was recorded. Indomethacin and the solvent (DMSO), were used as positive and negative controls, respectively, and the percent inhibition of the enzyme was calculated by comparing the rates of the samples to the controls.

human recombinant COX-2 = biological target: T2, human recombinant COX-2 (Homo sapiens, UniProt P35354); test: Cyclooxygenase assay (oxygen electrode), COX-2; settings: estimated from one inhibitor point at 20 µM; 100 µM AA
T2 construct: purchased Cayman Chemical
T2 sequence (P35354 18-604): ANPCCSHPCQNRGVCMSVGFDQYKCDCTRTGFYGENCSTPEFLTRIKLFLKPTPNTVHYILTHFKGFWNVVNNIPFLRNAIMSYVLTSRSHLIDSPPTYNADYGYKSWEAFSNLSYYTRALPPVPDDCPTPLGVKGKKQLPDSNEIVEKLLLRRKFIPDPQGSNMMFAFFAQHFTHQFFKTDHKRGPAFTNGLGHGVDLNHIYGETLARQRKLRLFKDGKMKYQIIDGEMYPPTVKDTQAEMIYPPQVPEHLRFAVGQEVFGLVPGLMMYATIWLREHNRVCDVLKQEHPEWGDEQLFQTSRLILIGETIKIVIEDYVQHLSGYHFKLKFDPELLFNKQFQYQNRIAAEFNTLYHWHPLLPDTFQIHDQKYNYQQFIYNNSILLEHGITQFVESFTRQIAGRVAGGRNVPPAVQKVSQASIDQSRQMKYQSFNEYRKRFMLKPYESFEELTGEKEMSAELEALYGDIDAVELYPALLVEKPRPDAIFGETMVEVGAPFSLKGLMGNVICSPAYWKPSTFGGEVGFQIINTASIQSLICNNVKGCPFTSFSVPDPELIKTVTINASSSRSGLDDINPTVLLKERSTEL
Description: as §1

15-LOX-1 = biological target: T3, 15-LOX-1 (Homo sapiens, UniProt P16050); test: Lipoxygenase UV-Vis assay, 15-LOX-1; settings: estimated from one inhibitor point at 20 µM; 10 µM AA
T3 construct: His6 (N); made in house
T3 sequence (P16050 1-662): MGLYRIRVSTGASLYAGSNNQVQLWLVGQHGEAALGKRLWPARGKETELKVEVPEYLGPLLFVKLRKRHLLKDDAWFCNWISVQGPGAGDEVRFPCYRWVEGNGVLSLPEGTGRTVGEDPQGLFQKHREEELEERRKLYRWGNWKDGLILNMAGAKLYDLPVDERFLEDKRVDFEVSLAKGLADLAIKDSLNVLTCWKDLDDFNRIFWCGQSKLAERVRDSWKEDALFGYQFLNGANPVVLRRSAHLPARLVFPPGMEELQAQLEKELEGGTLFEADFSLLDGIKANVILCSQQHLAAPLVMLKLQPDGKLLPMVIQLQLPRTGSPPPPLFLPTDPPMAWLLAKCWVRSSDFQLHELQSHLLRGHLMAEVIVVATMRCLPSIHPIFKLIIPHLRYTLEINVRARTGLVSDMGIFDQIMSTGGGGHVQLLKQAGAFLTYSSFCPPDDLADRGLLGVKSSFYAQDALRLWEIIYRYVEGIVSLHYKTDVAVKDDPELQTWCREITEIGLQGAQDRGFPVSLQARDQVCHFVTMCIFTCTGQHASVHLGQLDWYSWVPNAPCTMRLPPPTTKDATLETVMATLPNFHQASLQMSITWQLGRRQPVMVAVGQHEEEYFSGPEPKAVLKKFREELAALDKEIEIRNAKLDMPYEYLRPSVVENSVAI
Excerpt: Different lipoxygenases, such as 15-LOX-1, 15-LOX-2, and 12-LOX were expressed as N-terminal His6-tagged proteins and were purified via immobilized metal affinity chromatography (IMAC) using an Ni-NTA resin for 15-LOX-1 [12], and 15-LOX-2 [17], and a Ni-IDA resin for 12-LOX [18]. […] Human leukocyte 5-lipoxygenase (5-LOX) was expressed as a non-tagged protein and used as a crude ammonium sulfate protein fraction, as published previously, [20].
The inhibitor compounds were screened initially using one concentration point at 25 µM on a Perkin-Elmer Lambda 40 UV/Vis spectrophotometer. […] The reactions were initiated by adding 200 nM 15-LOX-2, 30 nM 12-LOX, 40 nM 15-LOX-1, or approximately 100–300 nM (5–10 µL) of 5-LOX crude extract to a cuvette with 2 mL reaction buffer, constantly stirred using a magnetic stir bar at room temperature (22°C). Reaction buffers used for various LOX isozymes were as follows: 25 mM HEPES (pH 7.3), 0.3 mM CaCl2, 0.1 mM EDTA, 0.2 mM ATP, 0.01% Triton X-100, 10 µM AA for the crude, ammonium sulfate precipitated 5-LOX; and 25 mM HEPES (pH 7.5), 0.01% Triton X-100, 10 µM AA for 15-LOX-2, 15-LOX-1, and 12-LOX. […] The data were then plotted against inhibitor concentration, followed by a hyperbolic saturation curve fit (assuming total enzyme concentration [E]≪IC50). […] All inhibitors were stored at −20°C in DMSO. […]

Row | pIC50 (ovine COX-1) | pIC50 (human recombinant COX-2) | pIC50 (15-LOX-1) | Structure (SMILES)
1 | < 4.00 | < 4.00 | < 4.30 | Cc1ccc(CSc2ncn(-c3ccccc3)n2)cc1 [MLS000536924]
2 | < 4.30 | < 4.00 | < 4.00 | Clc1ccc(-c2nnc(C3CCCCC3)o2)cc1 [MLS000545091]
